Experimental findings from patent US8324264B1, “Inhibitors of bacterial biofilms and related methods” (Sequoia Sciences, Inc., priority 2011, dated 2012) are described below.

In brackets after ≈: the same amount, converted by molar mass.

The test system of assay [1] is P. aeruginosa biofilms. In words: Biofilm growth assay (spreading biofilm on semi-solid agar), P. aeruginosa. The assay is classed as cell-based. The note with it: biofilm growth assay, overnight 37° C., vs negative controls, Tables 1-5; for IC85: Pseudomonas aeruginosa, read-out: P. aeruginosa: concentration that reduces the area of the spreading biofilm by greater than or equal to 85%. An excerpt:
(§1) “Biofilm Growth Assay” refers to an assay performed on semi-solid agar surface where the bacteria collectively move out from an inoculation point. To those skilled in the art, the act of bacteria collectively moving out from an inoculation point on a semi-solid surface may be referred to as swarming or a spreading biofilm. (Anderson, et al Microbiology, 2003, 149, 37-46; Daniels, et al. FEMS Microbiology Reviews, 2004, 28, 261-289). The procedure to perform this assay is described in detail in the Examples. This type of surface motility by bacteria has been reported in the literature by those skilled in the art. […] These references are incorporated herein by reference in their entirety.
(§2) The biofilm growth assay was carried out to measure swarming or biofilm spreading on semi-solid agar media in round plates (for example, 100×15 mm), also referred to as Petri dishes. For E. coli, the plates contained LB medium with 0.6% agar and 0.5% glucose. P. aeruginosa plates were made with M8 agar supplemented with 0.2% glucose, 100 μM CaCl2, 1 mM MgSO4, and 0.5% Casamino acids. The agar plates of this assay consisted of 0.4% to 0.7% agar (Bacto or Noble agar), although other media may also be used as described in the literature and known to those skilled in the art. Test compounds at the desired concentration were added to the cooled, autoclaved media. Portions of the media were then poured into the plates (20 mL/plate), and the plates allowed to dry at room temperature for approximately 3 to 4 hours. Alternatively, however, plates may be dried in a laminar flow hood for approximately fifteen to twenty minutes. Overnight cultures were grown in a 37° C. shaker in LB (E. coli) or TSB (P. aeruginosa). Plates were inoculated by placing 5 μL of the appropriate overnight culture in the centers of the plates. The plates then were incubated overnight at 37° C. The area of the zone of spreading bacteria was then measured and replicates are averaged. Percent inhibition was calculated as 100×(area without compound−area with compound)/(area without compound). An active compound was considered that which reduces the area of the spreading biofilm compared to negative controls by greater than or equal to 85%. The values shown in Table 1 are the concentrations of compounds (μg/ml) tested in the biofilm growth assay that reduce the area of the spreading biofilm compared to negative controls by greater than or equal to 85% unless noted differently in Table 1. A > (“greater than” symbol) as used in Table 1 is well understood to those skilled in the art as an indication that the listed concentration was not effective at this concentration.
(§3) All of the compounds shown in Tables 2, 3, 4, and 5, below, were prepared semi-synthetically from oleanolic acid, except for Compounds 2 and 3. Compound 2 was prepared from ursolic acid. Compound 3 was prepared from hederagenin, but could also be prepared from an oleanolic acid analog with a hydroxyl at C23 or C24. These compounds were tested in the spreading biofilm assay according to the methods detailed in Example I, above. The values shown in Tables 2, 3, 4, and 5 are the concentrations of compounds tested in the biofilm growth assay that reduce the area of the spreading biofilm compared to negative controls by greater than or equal to 85%.

Assay [2] deals with E. coli biofilms. Kind of assay: Biofilm growth assay (spreading biofilm on semi-solid agar), E. coli. The assay is classed as cell-based. The note with it: biofilm growth assay, overnight 37° C., vs negative controls, Tables 1-5; for IC85: Escherichia coli, read-out: E. coli: concentration that reduces the area of the spreading biofilm by greater than or equal to 85%.
Text: as §1, §2, §3

For `CC1(C)CC[C@]2(c3n[nH]c(O)c3N3CCOCC3)CC[C@]3(C)C(=CCC4[C@@]5(C)Cc6c(n[nH]c6N)C(C)(C)[C@@H]5CC[C@]43C)[C@@H]2C1` (stereo partly drawn) [Compound 88, 3-((4aS,6aS,6bR,13aR)-12-Amino-2,2,6a,6b,9,9,13a-heptamethyl-2,3,4,4a,5,6,6a,6b,7,8,8a,9,11,13,13a,13b,14,15b-octadecahydro-1H-chryseno[1,2-f]indazol-4-a-yl)-4-morpholino-1H-pyrazol-5-ol], the IC85 was 0.25 µg/mL (≈ 0.405 µM) in assay [1] and 0.5 µg/mL (≈ 0.811 µM) in assay [2].
For `CC1(C)CC[C@]2(C(=O)O)CC[C@]3(C)C(=C(c4ccco4)CC4[C@@]5(C)Cc6c(n[nH]c6N)C(C)(C)[C@@H]5CC[C@]43C)[C@@H]2C1` (stereo partly drawn) [Example 7, (4aS,6aS,6bR,13aR)-12-Amino-15-(furan-2-yl)-2,2,6a,6b,9,9,13a-heptamethyl-2,3,4,4a,5,6,6a,6b,7,8,8a,9,11,13,13a,13b,14,15b-octadecahydro-1H-chryseno[1,2-f]indazole-4-a-carboxylic acid], in that order: 0.25 µg/mL (≈ 0.447 µM) and 1 µg/mL (≈ 1.79 µM).
For `CC1(C)CC[C@]2(C(=O)n3ccnc3N)CC[C@]3(C)C(=CCC4[C@@]5(C)Cc6c(n[nH]c6N)C(C)(C)C5CC[C@]43C)C2C1` (stereo partly drawn) [Compound 73, (2-Amino-1H-imidazol-1-yl)((4aS,6aS,6bR,13aR)-12-amino-2,2,6a,6b,9,9,13a-heptamethyl-2,3,4,4a,5,6,6a,6b,7,8,8a,9,11,13,13a,13b,14,15b-octadecahydro-1H-chryseno[1,2-f]indazol-4-a-yl)methanone], in that order: 1 µg/mL (≈ 1.79 µM) and 1 µg/mL (≈ 1.79 µM).
For `CC1(C)CC[C@]2(C(=O)O)CC[C@]3(C)C(=C(CO)CC4[C@@]5(C)Cc6c(n[nH]c6N)C(C)(C)[C@@H]5CC[C@]43C)[C@@H]2C1` (stereo partly shown) [N], in that order: 8 µg/mL (≈ 15.3 µM) and 8 µg/mL (≈ 15.3 µM).
`CC1(C)CC[C@]2(C(=O)O)CC[C@]3(C)C(=C(c4cn[nH]c4)CC4[C@@]5(C)Cc6c(n[nH]c6N)C(C)(C)[C@@H]5CC[C@]43C)[C@@H]2C1` (stereo partly drawn) [Example 27, (4aS,6aS,6bR,8aR,13aR,15bS)-12-Amino-2,2,6a,6b,9,9,13a-heptamethyl-15-(1H-pyrazol-4-yl)-2,3,4,4a,5,6,6a,6b,7,8,8a,9,11,13,13a,13b,14,15b-octadecahydro-1H-chryseno[1,2-f]indazole-4-a-carboxylic acid]: the “P. aeruginosa: concentration that reduces the area of the spreading biofilm by greater than or equal to 85%” value in assay [1] is 1 µg/mL. Also, the “E. coli: concentration that reduces the area of the spreading biofilm by greater than or equal to 85%” value in assay [2] was greater than 2 µg/mL.
As for `C[C@@H]1CC[C@]2(C(=O)O)CC[C@]3(C)C(=CCC4[C@@]5(C)C[C@H](CO)[C@H](O)C(C)(C)C5CC[C@]43C)C2[C@H]1C` (stereo partly shown) [A], the IC85 was 8 µg/mL (≈ 16.4 µM) in assay [1] and greater than 8 µg/mL in assay [2].
For `CC1(C)CC[C@]2(c3cc(O)[nH]n3)CC[C@]3(C)C(=CCC4[C@@]5(C)Cc6c(n[nH]c6N)C(C)(C)[C@@H]5CC[C@]43C)[C@@H]2C1` (stereo partly drawn) [Compound 68, 3-((4aS,6aS,6bR,13aR)-12-Amino-2,2,6a,6b,9,9,13a-heptamethyl-2,3,4,4a,5,6,6a,6b,7,8,8a,9,11,13,13a,13b,14,15b-octadecahydro-1H-chryseno[1,2-f]indazol-4-a-yl)-1H-pyrazol-5-ol], in that order: 0.5 µg/mL (≈ 0.94 µM) and 0.5 µg/mL (≈ 0.94 µM).
For `C[C@H]1[C@H](C)CC[C@]2(CO)CC[C@]3(C)C(=CC[C@@H]4[C@@]5(C)CC[C@H](O)C(C)(C)[C@@H]5CC[C@]43C)[C@H]12` [Uvaol, reference compound], in that order: greater than 128 µg/mL and greater than 8 µg/mL.
For `CC1(C)CC[C@]2(c3n[nH]c(O)c3CCN)CC[C@]3(C)C(=CCC4[C@@]5(C)Cc6c(n[nH]c6N)C(C)(C)[C@@H]5CC[C@]43C)[C@@H]2C1` (stereo partly drawn) [Compound 84, 3-((4aS,6aS,6bR,13aR)-12-Amino-2,2,6a,6b,9,9,13a-heptamethyl-2,3,4,4a,5,6,6a,6b,7,8,8a,9,11,13,13a,13b,14,15b-octadecahydro-1H-chryseno[1,2-f]indazol-4-a-yl)-4-(2-aminoethyl)-1H-pyrazol-5-ol], in that order: 0.125 µg/mL (≈ 0.217 µM) and 0.5 µg/mL (≈ 0.87 µM).
Consider `CC1(C)CC[C@]2(C(=O)O)CC[C@]3(C)C(=CCC4[C@@]5(C)Cc6cc[nH]c6C(C)(C)C5CC[C@]43C)C2C1` (stereo partly shown) [C], for which the IC85 in assay [1] and in assay [2] was 0.5 µg/mL (≈ 1.05 µM) throughout.
As to `CC1(C)CC[C@]2(c3nnc(S)[nH]3)CC[C@]3(C)C(=CCC4[C@@]5(C)Cc6c(n[nH]c6N)C(C)(C)C5CC[C@]43C)C2C1` (stereo partly drawn) [Compound 75, 5-((4aS,6aS,6bR,13aR)-12-Amino-2,2,6a,6b,9,9,13a-heptamethyl-2,3,4,4a,5,6,6a,6b,7,8,8a,9,11,13,13a,13b,14,15b-octadecahydro-1H-chryseno[1,2-f]indazol-4-a-yl)-4H-1,2,4-triazole-3-thiol], the “P. aeruginosa: concentration that reduces the area of the spreading biofilm by greater than or equal to 85%” value in assay [1] turned out to be 0.5 µg/mL. For the same molecule, in assay [2], the “E. coli: concentration that reduces the area of the spreading biofilm by greater than or equal to 85%” value amounted to 1 µg/mL.
For `CC1(C)CC[C@]2(C(=O)O)CC[C@]3(C)C(=C(c4ccc5[nH]ccc5c4)CC4[C@@]5(C)Cc6c(n[nH]c6N)C(C)(C)C5CC[C@]43C)C2C1` (stereo partly drawn) [Example 49, (4aS,6aS,6bR,13aR)-12-Amino-15-(1H-indol-5-yl)-2,2,6a,6b,9,9,13a-heptamethyl-2,3,4,4a,5,6,6a,6b,7,8,8a,9,11,13,13a,13b,14,15b-octadecahydro-1H-chryseno[1,2-f]indazole-4-a-carboxylic acid], in assay [1], the “P. aeruginosa: concentration that reduces the area of the spreading biofilm by greater than or equal to 85%” value was determined as 0.5 µg/mL. Also, in assay [2], the “E. coli: concentration that reduces the area of the spreading biofilm by greater than or equal to 85%” value was greater than 1 µg/mL.
For `CC1(C)CC[C@]2(C(=O)O)CC[C@]3(C)C(=C(c4ccc(N5CCNCC5)cc4)CC4[C@@]5(C)Cc6c(n[nH]c6N)C(C)(C)C5CC[C@]43C)C2C1` (stereo partly drawn) [Example 50, (4aS,6aS,6bR,13aR)-12-Amino-2,2,6a,6b,9,9,13a-heptamethyl-15-(4-(piperazin-1-yl)phenyl)-2,3,4,4a,5,6,6a,6b,7,8,8a,9,11,13,13a,13b,14,15b-octadecahydro-1H-chryseno[1,2-f]indazole-4-a-carboxylic acid], in that order: 2 µg/mL and 1 µg/mL.
For `CC1(C)CC[C@]2(C(=O)O)CC[C@]3(C)C(=C(c4cccc5c4CCNC5)CC4[C@@]5(C)Cc6c(n[nH]c6N)C(C)(C)C5CC[C@]43C)C2C1` (stereo partly drawn) [Example 47, (4aS,6aS,6bR,13aR)-12-Amino-2,2,6a,6b,9,9,13a-heptamethyl-15-(1,2,3,4-tetrahydroisoquinolin-5-yl)-2,3,4,4a,5,6,6a,6b,7,8,8a,9,11,13,13a,13b,14,15b-octadecahydro-1H-chryseno[1,2-f]indazole-4-a-carboxylic acid], in that order: 0.5 µg/mL and 1 µg/mL.
